{"source": "patent US20130051651A1", "about": "“QUANTITATIVE IMAGE ANALYSIS FOR WOUND HEALING ASSAY” (PURDUE RESEARCH FOUNDATION, priority 2010, published 2013)", "tested_on": "MCF7 cells", "test": "wound healing assay analysed with the quantitative image analysis algorithm", "format": "cell-based", "from_the_text": "The wound healing assay, or “scratch” assay, is a traditional method used to study cell proliferation and migration. […] The cultures are then imaged over time using bright field or fluorescence microscopy to monitor the growth and migration of cells into the wound as it is healing.\nIllustrative embodiments of the quantitative image analysis algorithm 100 have been tested multiple times and have provided robust and dependable wound healing assay analysis. By way of example, the […] 102 of several wound healing assays were measured at 24 hour time points (up to 96 hours). […] In this experiment, the algorithm took 90 minutes to process five time points for each wound healing assay in a 96 well plate (i.e., a total of 480 bright point images 102 being analyzed). […]\nFurthermore, the data produced by the quantitative image analysis algorithm 100 matches traditional wound healing assay data. […]"}
{"substance": "neuregulin 2β", "values": [{"measurement": "percentage of wound healing using the wound area calculated by the algorithm", "setting": "MCF7 cells treated with varying doses, different time points, dose response 48 hours after wound creation (FIGS. 3A, 3B)", "value": "dose-dependent increase in healing"}, {"measurement": "healing curve (speed of wound healing)", "setting": "MCF7 cells, 4 different doses, treated versus untreated cells over time (FIG. 3A)", "value": "treated cells healed faster"}]}
